According to patent publication US8426386B2, “NK1 receptor antagonist composition” (Lion Corporation, priority 2006, dated 2013):

Test system: NK1 receptor
Test: NK1 Receptor Antagonism Assay (calcium imaging, substance P stimulation)
Format: cell-based, human
Settings: for effect as the NK1 receptor antagonist (in words): summary of Table 1
Excerpt: [Performance Evaluation Test] NK1 Receptor Antagonism Assay
In this test, maltose, maltotriose, maltotetraose, maltopentaose, maltohexaose and maltoheptaose were purchased from SIGMA, isomaltose, isomaltotriose, isomaltotetraose, isomaltopentaose, isomaltohexaose and isomaltoheptaose were purchased from Seikagaku Corporation, and four types of oligosaccharides-1-kestose, fructofranosylnystose, nystose and galactotetraose—were purchased from Wako Pure Chemicals Industries Ltd. Each oligosaccharide was diluted with saline, and used.
In order to transiently express a cloned human NK1 receptor in HEK293, cDNA of the human NK1 receptor was cut out from pCDM8 (Invitrogen), and cloned in an expression vector pCDM9 derived by inserting an ampicillin resistant gene (BLUESCRIPT, nucleotides 1973 to 2964 from SK+) at a SacII site.
HEK293 cells were seeded at 1×10^5 cells in a Falcon dish (diameter: 3.5 cm) using α-MEM medium (Gibco) containing 10% bovine fetal serum, and cultured in a 5% CO2 incubator at 37° C. overnight. Then, 20 μg of the expression vector was transfected using Transfection Reagent FuGENE6 (Roche) according to attached instructions, and the transfectants were incubated at 37° C. for 3 days and assayed by a calcium imaging method.
According to Renganathan et al's method (Renganathan M et al., J. Neurophysiol., 84(2), […] (2000)), nerve cells were dispersed and isolated from spinal dorsal root ganglion in a wild type mouse, and 1×10^5 thereof were seeded in a 24-well plate coated with poly-L-lysine. The cells were cultured in 90% DMEM medium (GIBCO) supplemented with 10% bovine fetal serum, 2 mM glutamine, 100 U/mL of penicillin/streptomycin, 100 ng/mL of NGF (SIGMA) and 5 μM cytosine arabinoside (SIGMA) under 5% CO2 at 37° C. The cells were cultured for 1 to 3 weeks, and subsequently subjected to a calcium imaging analysis. A half of the nerve cells was identified to be positive for the NK1 receptor by staining the nerve cells derived from spinal dorsal root ganglion in the wild type mouse with an anti-NK1 receptor antibody (supplied from CHEMICON International).
The cells which express the NK1 receptor transiently or constitutively were subjected to measurement using a high resolution digital B/W cooling CCD camera (ORCA supplied from Hamamatsu Photonics K.K.), and their images were analyzed using an analysis software (AQUA COSMOS supplied from Hamamatsu Photonics K.K.). When the cells were labeled for calcium, Fluo4-AM (supplied from Molecular Probe) was used as a calcium sensitive dye. Fifty μg of Fluo4-AM was dissolved in 400 μL of DMSO in a vial, 4 μL of Pluronic F-127 (Molecular Probe) was added and mixed, and then 4 mL of OPTI-MEM (GIBCO) was added thereto. The calcium sensitive dye solution thus prepared was added to the cells, which were then incubated at 37° C. for 60 minutes. An agonist, an antagonist and samples to be evaluated were prepared at concentrations which were 10 times higher than assay concentrations, and analyzed by adding a one tenth volume of the cell suspension upon analysis. All reagents and an assay temperature were kept at 37° C. For the cells transfected transiently, YFP reporter DNA fluorescence (excitation: 490 nm) was used for identifying the transfected cells. Upon measurement, a fluorescence intensity obtained by initially imaging the untreated cells was made an initial value. After passing one minute, a change of calcium/fluorescence intensity in the sample to be evaluated at the desired concentration was monitored with an interval of one second before and after the addition (2 to 5 minutes). Subsequently, substance P was added, and immediately after (2 to 5 minutes), an antagonistic activity of the sample to be evaluated was determined by monitoring the change of intracellular calcium concentrations as the change of the fluorescence intensities with the interval of one second. […]

[1] = evaluated concentration 1000 ppm, substance P 100 μM
[2] = evaluated concentration 0.1 ppm, substance P 100 μM
[3] = evaluated concentration 1 ppm, substance P 100 μM
[4] = evaluated concentration 10 ppm, substance P 100 μM
[5] = evaluated concentration 100 ppm, substance P 100 μM

| effect as the NK1 receptor antagonist (in words) | NK1 receptor antagonistic activity (positive control, 100 ppm (Table 1), substance P 100 μM) | efficacy at a low concentration (in words) (0.1 ppm) | Compound | Efficacy (NK1 receptor antagonistic activity grade) [1] | Efficacy (NK1 receptor antagonistic activity grade) [2] | Efficacy (NK1 receptor antagonistic activity grade) [3] | Efficacy (NK1 receptor antagonistic activity grade) [4] | Efficacy (NK1 receptor antagonistic activity grade) [5] |
| --- | --- | --- | --- | --- | --- | --- | --- | --- |
|  | 65% |  | SPANTIDE II: standard substance SPANTIDE II (peptidic analog of substance P), positive control (SPANTIDEII) [reference compound] |  |  |  |  |  |
| high effect |  |  | maltoheptaose | B (Effective: the antagonistic activity was 65% or more and less than 75% and the more excellent performance than in the positive control was shown.) | D (Ineffective: the antagonistic activity was less than 65%, or the stimulating or agonistic activity of the sample was strong.) | C (Slightly effective: the antagonistic activity was less than 65%, and a stimulating or agonistic activity of the sample was weak.) | C (Slightly effective: the antagonistic activity was less than 65%, and a stimulating or agonistic activity of the sample was weak.) | B (Effective: the antagonistic activity was 65% or more and less than 75% and the more excellent performance than in the positive control was shown.) |
| high effect |  |  | maltohexaose | B (Effective: the antagonistic activity was 65% or more and less than 75% and the more excellent performance than in the positive control was shown.) | C (Slightly effective: the antagonistic activity was less than 65%, and a stimulating or agonistic activity of the sample was weak.) | C (Slightly effective: the antagonistic activity was less than 65%, and a stimulating or agonistic activity of the sample was weak.) | B (Effective: the antagonistic activity was 65% or more and less than 75% and the more excellent performance than in the positive control was shown.) | B (Effective: the antagonistic activity was 65% or more and less than 75% and the more excellent performance than in the positive control was shown.) |
| high effect |  | high efficacy | maltopentaose | A (Complete response: the antagonistic activity was 75% or more and much more excellent performance than in the positive control was shown.) | B (Effective: the antagonistic activity was 65% or more and less than 75% and the more excellent performance than in the positive control was shown.) | B (Effective: the antagonistic activity was 65% or more and less than 75% and the more excellent performance than in the positive control was shown.) | B (Effective: the antagonistic activity was 65% or more and less than 75% and the more excellent performance than in the positive control was shown.) | A (Complete response: the antagonistic activity was 75% or more and much more excellent performance than in the positive control was shown.) |
| high effect |  |  | maltotriose | A (Complete response: the antagonistic activity was 75% or more and much more excellent performance than in the positive control was shown.) | C (Slightly effective: the antagonistic activity was less than 65%, and a stimulating or agonistic activity of the sample was weak.) | C (Slightly effective: the antagonistic activity was less than 65%, and a stimulating or agonistic activity of the sample was weak.) | C (Slightly effective: the antagonistic activity was less than 65%, and a stimulating or agonistic activity of the sample was weak.) | B (Effective: the antagonistic activity was 65% or more and less than 75% and the more excellent performance than in the positive control was shown.) |

| Compound | effect as the NK1 receptor antagonist (in words) | NK1 receptor antagonistic activity (positive control, 100 ppm (Table 1), substance P 100 μM) | efficacy at a low concentration (in words) (0.1 ppm) | Efficacy (NK1 receptor antagonistic activity grade) [1] | Efficacy (NK1 receptor antagonistic activity grade) [2] | Efficacy (NK1 receptor antagonistic activity grade) [3] | Efficacy (NK1 receptor antagonistic activity grade) [4] | Efficacy (NK1 receptor antagonistic activity grade) [5] |
| --- | --- | --- | --- | --- | --- | --- | --- | --- |
| OC[C@H]1O[C@@](CO)(OC[C@@]2(OC[C@@]3(O[C@H]4O[C@H](CO)[C@@H](O)[C@H](O)[C@H]4O)O[C@H](CO)[C@@H](O)[C@@H]3O)O[C@H](CO)[C@@H](O)[C@@H]2O)[C@@H](O)[C@@H]1O [Nystose, nystose, reference compound] | no NK1 receptor antagonistic activity was observed at all |  |  | D (Ineffective: the antagonistic activity was less than 65%, or the stimulating or agonistic activity of the sample was strong.) |  |  |  |  |
